Laboratory results as given in patent publication US8648070B2, “Bicyclic ring system substituted sulfonamide functionalised phenols as medicaments” (Boehringer Ingelheim International GmbH, priority 2010, dated 2014).

Molecular target: T1, human CXCR2 (Homo sapiens, UniProt P25025)
T1 construct: expressed in transfected cells; host or cells: BAF/3 cells
T1 sequence (P25025 1-360): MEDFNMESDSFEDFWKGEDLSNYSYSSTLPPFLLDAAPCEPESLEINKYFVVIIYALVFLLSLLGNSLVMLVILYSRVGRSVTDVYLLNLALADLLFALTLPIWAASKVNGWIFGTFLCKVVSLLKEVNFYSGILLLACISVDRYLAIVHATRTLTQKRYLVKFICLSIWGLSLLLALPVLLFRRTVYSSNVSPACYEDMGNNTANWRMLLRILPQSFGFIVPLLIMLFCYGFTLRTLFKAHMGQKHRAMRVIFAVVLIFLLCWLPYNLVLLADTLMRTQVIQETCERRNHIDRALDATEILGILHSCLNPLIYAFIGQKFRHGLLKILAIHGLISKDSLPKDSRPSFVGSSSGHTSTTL
Assay: Chemotaxis assay 1, transfected cell line: inhibition of CXCL1 induced chemotaxis of BAF/3 cells expressing human CXCR2
Type: cell-based
Conditions: CXCL1 (3 nM) induced chemotaxis of BAF/3 cells expressing human CXCR2, 4 hours, Cell Titer Glo readout
Protocol: Chemotaxis Assay 1, Transfected Cell Line:
This assay measures the inhibition of CXCL1 induced chemotaxis of BAF/3 cells expressing human CXCR2. For each assay point, 100 μL of a 3×10^6/mL cell suspension are incubated with 1 μL of test compound diluted in DMSO. The bottom wells of a chemotaxis plate (5 μm pore size, Neuroprobe) is filled with 305 μL of chemotaxis buffer (RPMI 1640 medium (phenol red free), containing 2% fetal calf serum) and 3 nM CXCL1. The 5 μm pore membrane is applied onto the chemotaxis plate and 80 μL of the cell suspension is cautiously pipetted onto the membrane. The lid is put on the chemotaxis plate and the plate is incubated for 4 hours in an incubator (37° C., 5% CO2). For quantification of migrated cells, the cell suspension and the lid are removed and 100 μL from the bottom chamber are transferred to an Opti plate 96 (Perkin Elmer). 100 μL of substrate solution (provided by Cell Titer Glo kit, Promega) are added. This method uses the measurement of ATP present in metabolically active cells. After 10 min incubation at room temperature the plate is measured at Luminoscan for quantification of ATP-dependent generation of oxyluciferin. IC50s of the tested compound are calculated by non-linear regression and using a sigmoidal dose-response curve as fitting algorithm (provided by GraphPadPrism). Determination of a bottom value is performed by quantification of migration of buffer treated cells, migrating towards buffer only. Determination of a top value is performed by quantification of migration of buffer treated cells, migrating towards CXCL1.

SMILES	IC50 [nM]
CC[C@@H](Nc1c(Nc2ccc(Cl)c(S(=O)(=O)N3CCN4CCCC4C3)c2O)c(=O)c1=O)c1ccccc1 (some centres unmarked) [Example 1]	0.7
CC[C@@H](Nc1c(Nc2ccc(Cl)c(S(=O)(=O)N3CCN4CCCC4C3)c2O)c(=O)c1=O)c1ccc(C)o1 (some centres unmarked) [Example 2]	0.9
O=c1c(Nc2ccc(Cl)c(S(=O)(=O)N3CCN4CCCC4C3)c2O)c(Nc2cccc(F)c2Cl)c1=O (centres unmarked) [Example 3]	5.1
CC[C@@H](Nc1c(Nc2ccc(Cl)c(S(=O)(=O)N3CCN4CCOCC4C3)c2O)c(=O)c1=O)c1ccccc1 (some centres unmarked) [Example 4]	0.6
CC[C@@H](Nc1c(Nc2ccc(Cl)c(S(=O)(=O)N3CCN4CCOCC4C3)c2O)c(=O)c1=O)c1ccc(C)o1 (some centres unmarked) [Example 5]	6.8
O=c1c(Nc2ccc(Cl)c(S(=O)(=O)N3CCN4CCOCC4C3)c2O)c(Nc2cccc(F)c2Cl)c1=O (centres unmarked) [Example 6]	37.8
CC[C@@H](Nc1c(Nc2ccc(Cl)c(S(=O)(=O)N3CCN4CCOC[C@H]4C3)c2O)c(=O)c1=O)c1ccc(C)o1 [Example 7]	4.9
CC[C@@H](Nc1c(Nc2ccc(Cl)c(S(=O)(=O)N3CCN4CCOC[C@H]4C3)c2O)c(=O)c1=O)c1ccc(C(F)(F)F)o1 [Example 8]	56.6
CC[C@@H](Nc1c(Nc2ccc(Cl)c(S(=O)(=O)N3CCN4CCOC[C@@H]4C3)c2O)c(=O)c1=O)c1ccc(C)o1 [Example 9]	13.4
CC[C@@H](Nc1c(Nc2ccc(Cl)c(S(=O)(=O)N3CCN4CCOC[C@@H]4C3)c2O)c(=O)c1=O)c1ccc(C(F)(F)F)o1 [Example 10]	64.8
CCC(Nc1c(Nc2ccc(Cl)c(S(=O)(=O)N3CCN4C(=O)CCC4C3)c2O)c(=O)c1=O)c1ccccc1 (centres unmarked) [Example 11]	2.6
CCC(Nc1c(Nc2ccc(Cl)c(S(=O)(=O)N3CCN4C(=O)CCC4C3)c2O)c(=O)c1=O)c1ccc(C)o1 (centres unmarked) [Example 12]	14.4
CC[C@@H](Nc1c(Nc2ccc(Cl)c(S(=O)(=O)N3CCC4(CCNC4=O)CC3)c2O)c(=O)c1=O)c1ccccc1 [Example 13]	22.6
CC[C@@H](Nc1c(Nc2ccc(Cl)c(S(=O)(=O)N3CCC4(CCNC4=O)CC3)c2O)c(=O)c1=O)c1ccc(C)o1 [Example 14]	47.1
CC[C@@H](Nc1c(Nc2ccc(Cl)c(S(=O)(=O)N3CCC4(CC3)COCCN4)c2O)c(=O)c1=O)c1ccccc1 [Example 15]	33.8
CC[C@@H](Nc1c(Nc2ccc(Cl)c(S(=O)(=O)N3CCC4(CC3)COCCN4)c2O)c(=O)c1=O)c1ccc(C)o1 [Example 16]	8.7
CC[C@@H](Nc1c(Nc2ccc(Cl)c(S(=O)(=O)N3CCC4(CC3)COCCN4)c2O)c(=O)c1=O)c1ccc(C(F)(F)F)o1 [Example 17]	54.4
CC[C@@H](Nc1c(Nc2ccc(Cl)c(S(=O)(=O)N3CCC4(CCCC4)CC3)c2O)c(=O)c1=O)c1ccccc1 [Example 18]	149
CC[C@@H](Nc1c(Nc2ccc(Cl)c(S(=O)(=O)N3CCC4(CCCC4)CC3)c2O)c(=O)c1=O)c1ccc(C)o1 [Example 19]	11.6
CC[C@@H](Nc1c(Nc2ccc(Cl)c(S(=O)(=O)N3C[C@H]4NCCO[C@@H]4C3)c2O)c(=O)c1=O)c1ccc(C)o1 [Example 20]	58.6
